Our source for the melting point values is a melting point compilation (Tetko et al.; mined from patent text by program, amines drawn as free bases though some values may be those of a salt).

In general, melting point refers to the temperature, or range, at which the solid turns liquid. In turn, `CCCCCOc1ccc(C(=O)Nc2ccc3cc(CN4CCCC4)cnc3c2C)c(F)c1` returned a melting point of 143 °C.

`COc1ccc2nc3ccc(C(C)=O)cn3c(=O)c2c1`: the melting point fell in the range of 194 to 196 °C.

`O=C(O)c1cc(S(=O)(=O)NCCc2ccc(Cl)cc2)ccc1Cl` came in with a melting point of 176 to 178 °C.

`Cc1cn(C(C)(C)C(=O)N(C)C)nc1-c1cccc(Cl)c1` displayed a melting point of 144 to 146 °C.

Turning to `CSc1ccc(Oc2ccc(C#N)cc2)cc1`, the melting point lay within 65 to 66 °C.

For `Cc1sc(N)c(C(=O)c2ccc(Cl)cc2)c1CN1CCN(c2ccc(F)cc2)CC1`, the melting point lay in the range of 70 to 72 °C.

Turning to `CCC1(CCCCN2CCN(c3ccc(C)c(Cl)c3)CC2)C(=O)Nc2ccccc21` (stereo not drawn), the melting point was 103 to 106 °C.

On to `Cc1ncccc1Oc1ccc(N)cn1`, for which the melting point is 95 to 100 °C.

Consider `CC1(C)CCC(C)(C)c2cc(CC#Cc3ccc(C(=O)NO)c(O)c3)ccc21`, for which the melting point was in the range of 119 to 120 °C.

Turning to `CC12CC(=O)C3C(CCC4CC(O)CCC43C)C1CCC2C(=O)CBr` (stereo not drawn), the melting point was 160 to 163 °C.

Turning to `CC(C)(O)CCOc1c(-c2ccc(S(N)(=O)=O)cc2)cnn(-c2ccc(F)c(Cl)c2)c1=O`, the melting point fell in the range of 59 to 62 °C.

The compound `COC(=O)/C=C/c1ccc(N(C)C(C)=O)nc1` had a melting point of 94.3 °C.

Compound `CC(C)[C@H](N)C(=O)NC(=O)N(CCCl)N=O` yielded a melting point of 115 to 117 °C.

`Cn1c(=O)cc(-c2cccc(Cl)c2)c2cc(C(O)(c3ccc(Cl)cc3)c3cnccc3Cl)ccc21` (stereo not drawn) came in with a melting point of 178 °C.

In turn, `CC(C)c1cccc(C(C)C)c1NC(=O)CNC(c1ccccn1)c1ccccn1` registered a melting point of 134 to 135 °C.

In turn, `CN(C)CCn1c(=O)c2c3oc4ccccc4oc3c3[nH]c4cc(O)ccc4c3c2c1=O` displayed a melting point above 360 °C.

As to `COc1ccc(NC(=O)c2ccc(OC)c(N)c2)cc1`, the melting point lay in the range of 164 to 167 °C.

With `O=C1CCC(C(=O)Nc2ccc(Cl)cc2C(=O)c2ccccc2Cl)O1` (stereo not drawn), the melting point was in the range of 170 to 173 °C.

For `COc1ccc(C(=O)c2cccc([N+](=O)[O-])c2)cc1OC`, the melting point lay within 133 to 135 °C.

The compound `COC1(OC)CCN(c2cc3c(cc2F)c(=O)c(C(=O)O)cn3C2CC2)C1` had a melting point of 224 to 226 °C.

In the case of `Cc1c(C(=O)CCl)csc1C(=O)CCl`, the melting point fell in the range of 155 to 156 °C.

For `CC(C)(C)OC(=O)NCC(=O)Nc1ccc(O)cc1`, the melting point lay in the range of 152 to 154 °C.

`NC(=O)CCn1c2ccc(O)cc2c2c3c(c(-c4ccccc4Cl)cc21)C(=O)NC3=O` registered a melting point of 319 to 322 °C.

On to `O=C(/C=C/C=C(c1cccc(C(F)(F)F)c1)c1cccc(C(F)(F)F)c1)NCCCCc1cccnc1`, for which the melting point lay in the range of 89 to 90 °C.

`CCOC(=O)C1CCN(c2nc(COc3ccc(CO)cc3OC)c(C)s2)CC1`: the melting point lay in the range of 84 to 85 °C.

`CC(c1ccnc(N)c1)C(O)(Cn1cncn1)c1ccc(F)cc1F` (stereo not drawn): the melting point lay in the range of 182 to 185 °C.

`NC(=O)Oc1ccccc1CCCCC#CCSCC#CCCCCc1ccccc1OC(N)=O`: the melting point amounted to 63 °C.

`CCCCCCCCCCCCCCOCC(CC#N)(CC#N)COCCCCCCCCCCCCCC` returned a melting point of 33 to 35 °C.

In turn, `Cc1cccc2c(=O)[nH]c(CCCN3CCC[C@@H]3CO)cc12` displayed a melting point of 150 to 151 °C.

Consider `CC(=O)c1c(C)[nH]c(CCN)c1C`, for which the melting point lay within 106 to 108 °C.

In turn, `O=c1oc2cc(O)ccc2c(O)c1C1=CCOc2oc3ccccc3c(=O)c21` returned a melting point above 300 °C.

As to `CN(C(=O)c1ccccn1)c1cc(F)cc(F)c1`, the melting point lay within 102 to 104 °C.

`CCC1(CC)OC(=O)Nc2ccccc21` showed a melting point of 159 to 160 °C.

The compound `Cc1oc(-c2ccc(C(F)(F)F)cc2)nc1COc1cc(F)cc(CN(O)C(N)=O)c1` gave a melting point of 156 to 157 °C.

As for `O=C(O)Cc1cccc(C(=O)c2ccc(Cl)cc2)c1`, the melting point was 148 °C.

`CCN(C)c1nn(C)c2ncc(-c3ccncc3)cc12` returned a melting point of 182 to 197 °C.

In turn, `C#CCc1c(C)nc2c(OCc3ccncc3C)cccn12` displayed a melting point of 156 to 157 °C.

`CCOC(=O)c1cn2c3c(cc(I)cc3c1=O)N(C)C(=O)C2` showed a melting point of 278 to 283 °C.

The compound `CC(C)n1ccc(-c2ccc([C@H](C)N3CC[C@](CC(C)(C)O)(c4ccccc4)OC3=O)cc2)cc1=O` showed a melting point of 134 to 139 °C.

`CCOC(=O)CCCCCCc1ccc2ccccc2c1O` came in with a melting point of 41 to 42 °C.

On to `CC(C)SC(F)(F)c1nnc(N)s1`, for which the melting point was in the range of 119 to 121 °C.

In turn, `C=CCOc1ccc2c(=O)c(C)c(-c3ccccc3)oc2c1C(=O)C=Cc1cc(OC)c(OC)c(OC)c1` yielded a melting point of 121 to 123 °C.

The compound `N#CCC(=O)c1ccccc1Cl` showed a melting point of 56 to 58 °C.

Compound `COC(=O)C1=C(C)NC(=O)N(C(=O)OC)C1c1cccc(N)c1` (stereo not drawn) gave a melting point of 190 to 193 °C.

In the case of `O=C1N(C2CCCCC2)CC(CN2CCC(O)(c3ccccc3)CC2)C1(c1ccccc1)c1ccccc1` (stereo not drawn), the melting point was in the range of 179 to 184 °C.

`CC(=O)N(O)Cc1cccc(C(O)C#Cc2ccsc2)c1` (stereo not drawn) showed a melting point of 133 °C.

`CCN1C(=O)C(C)(C)C(=O)N(C)c2cc(CN(CCn3ccc4ccsc4c3=O)Cc3cccnc3C)ccc21` displayed a melting point of 125 to 127 °C.

Compound `O=C1CCC2=C1C(c1cc(Br)cs1)C1=C(CCS1)N2` (stereo not drawn) gave a melting point of 254 to 255 °C.

`CCSC(=N)Nc1ccc(CCN(C)Cc2ccccc2)cc1` displayed a melting point of 136 to 137 °C.

Regarding `COc1cc(COc2nn(Cc3ccccc3)cc2C(C)=O)ccc1OCc1nc(-c2ccco2)oc1C`, the melting point fell in the range of 144 to 145 °C.

With `CN(C)C(=O)N(N)c1ccc(F)c(Cl)c1`, the melting point lay within 88 to 89 °C.

`Clc1ccccc1N=C1NCCN1` had a melting point of 133 to 134 °C.

The compound `O=C(NC1CCCCCCC1)NS(=O)(=O)c1ccc(CCNC(=O)N2CCCCC2=O)cc1` came in with a melting point of 170 to 172 °C.

The compound `O=C(O)c1ccccc1Sc1ccc(F)cc1[N+](=O)[O-]` registered a melting point of 167 to 168 °C.

With `CC(C)C(NC(=O)N(C)Cc1nc2ccccc2[nH]1)C(=O)NN(C(=O)OCc1cccnc1)C(Cc1ccccc1)CC(O)CCc1ccccc1` (stereo not drawn), the melting point lay within 110 to 114 °C.

For `Cc1nc(=O)c(C)c(NCCc2cccn2C)[nH]1`, the melting point is 246 to 247 °C.

As to `O=C(c1cc2c(cn1)[nH]c1ccccc12)n1ccnc1`, the melting point was above 280 °C.

On to `CCOC(=O)c1c(C)nc(-c2ccccc2)nc1-c1cc([N+](=O)[O-])ccc1SC`, for which the melting point was 125 to 126 °C.

With `CC(C)(C)OC(=O)CN(Cc1cccc(Cl)c1)S(=O)(=O)c1ccc2c(Cl)cnc(Cl)c2c1`, the melting point was 141 to 143 °C.

With `Nc1nc2c(c3[nH]cnc13)CCCC2`, the melting point was above 300 °C.

On to `O=C(O)CCN1CCN(Cc2ccccc2)CC1`, for which the melting point was 165 to 166 °C.

`CCc1cnc(N2CCC(c3nc4cc(-c5ccc(-n6cnnn6)cc5F)ccc4o3)CC2)nc1`: the melting point was in the range of 188 to 192 °C.

Take `CCOC(=O)CC(c1ccccc1)c1ccc(N2CCN(CCC3CCN(C(=O)OC(C)(C)C)CC3)C2=O)cc1` (stereo not drawn): the melting point fell in the range of 100 to 102 °C.
